The assay has as its system CD2F1 mice, L1210 leukemia ip, survival T/C. The assay is described as follows: NCI In Vivo Anticancer Drug Screen. Data for tumor model L1210 Leukemia (intraperitoneal) in CD2F1 (CDF1) mice. Conditions: endpoint: mean survival time, higher = longer survival. The gist of the method: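 Transplantable tumor in mice; compound-treated vs vehicle-treated groups. Read-out = treated/control ratio of the measured endpoint.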

[1] abbreviates: dose: 5.0 mg/kg/injection, schedule: Q04DX003 (ip), vehicle: saline.
Where [2] appears, read: dose: 10.0 mg/kg/injection, schedule: Q04DX003 (ip), vehicle: saline.
The mark [3] stands for this setting: dose: 100.0 mg/kg/injection, schedule: Q04DX003 (ip), vehicle: other.
The mark [4] stands for this setting: dose: 200.0 mg/kg/injection, schedule: Q04DX003 (ip), vehicle: other.
The mark [5] stands for this setting: dose: 400.0 mg/kg/injection, schedule: Q04DX003 (ip), vehicle: other.
[6] abbreviates: dose: 100.0 mg/kg/injection, schedule: Q01DX009 (ip), vehicle: saline.
[7] abbreviates: dose: 100.0 mg/kg/injection, schedule: Q01DX001 (ip), vehicle: saline with Tween-80.
Where [8] appears, read: dose: 200.0 mg/kg/injection, schedule: Q01DX001 (ip), vehicle: saline with Tween-80.
[9] abbreviates: dose: 400.0 mg/kg/injection, schedule: Q01DX001 (ip), vehicle: saline with Tween-80.
Where [10] appears, read: dose: 100.0 mg/kg/injection, schedule: Q01DX009 (ip), vehicle: saline with Tween-80.
The mark [11] stands for this setting: dose: 200.0 mg/kg/injection, schedule: Q01DX009 (ip), vehicle: saline with Tween-80.
Where [12] appears, read: dose: 200.0 mg/kg/injection, schedule: Q01DX009 (ip), vehicle: saline.

This is an account of results in PubChem BioAssay AID256 (DTP/NCI, 2004).

“And” between values parts separate entries of the source, which are not always exact repeats. Equal values may be shown once. Inconclusive results and toxic doses are left out.

Turning to `CN1C(=O)CC(c2ccc(NC(=O)N(CCCl)N=O)cc2)C1=O` (stereo not drawn), the T/C was 155 % of control and 160 % of control (dose: 12.5 mg/kg/injection, schedule: Q01DX001 (ip), vehicle: distilled water + Tween-80); 183 % of control and 196 % of control (dose: 25.0 mg/kg/injection, schedule: Q01DX001 (ip), vehicle: distilled water + Tween-80); 95 % of control (dose: 50.0 mg/kg/injection, schedule: Q01DX001 (ip), vehicle: distilled water + Tween-80).
As to `O=C(CC(=O)CC(O)(C(F)(F)F)C(F)(F)F)CC(O)(C(F)(F)F)C(F)(F)F`, the T/C is 100 % of control under setting [1] and 96 % of control under setting [2].
`Cc1c(C#N)sc2ccccc12`: the T/C is 112 % of control (dose: 50.0 mg/kg/injection, schedule: Q01DX009 (ip), vehicle: other); 95 % of control (dose: 100.0 mg/kg/injection, schedule: Q01DX009 (ip), vehicle: other); 109 % of control under setting [3]; 92 % of control under setting [4].
For `CCN(CC)c1ccc(N)cc1`, the T/C reads like this: (dose: 5.0 mg/kg/injection, schedule: Q01DX009 (ip), vehicle: saline) 96 % of control; under setting [1], 96 % of control; (dose: 10.0 mg/kg/injection, schedule: Q01DX009 (ip), vehicle: saline) 96 % of control; under setting [2], 97 % of control; (dose: 20.0 mg/kg/injection, schedule: Q01DX009 (ip), vehicle: saline) 100 % of control; (dose: 20.0 mg/kg/injection, schedule: Q04DX003 (ip), vehicle: saline) 94 % of control.
As for `CN1CCN(c2ncnc3c2ncn3C2OC(CO)C(O)C2O)CC1` (stereo not drawn), the T/C runs as follows: (dose: 12.5 mg/kg/injection, schedule: Q01DX005 (ip), vehicle: water) 106 % of control; (dose: 25.0 mg/kg/injection, schedule: Q01DX005 (ip), vehicle: water) 106 % of control; (dose: 50.0 mg/kg/injection, schedule: Q01DX005 (ip), vehicle: water) 112 % of control; (dose: 100.0 mg/kg/injection, schedule: Q01DX005 (ip), vehicle: water) 106 % of control; (dose: 200.0 mg/kg/injection, schedule: Q01DX005 (ip), vehicle: water) 102 % of control.
As to `COC(=O)c1cccc(N=NN(C)C)c1`, the T/C (dose: 23.0 mg/kg/injection, schedule: Q01DX009 (ip), vehicle: Klucel (hydroxypropylcellulose) (HPC)) was 108 % of control; the T/C (dose: 39.0 mg/kg/injection, schedule: Q01DX009 (ip), vehicle: Klucel (hydroxypropylcellulose) (HPC)) is 98 % of control; the T/C (dose: 65.0 mg/kg/injection, schedule: Q01DX009 (ip), vehicle: Klucel (hydroxypropylcellulose) (HPC)) was 97 % of control; the T/C (dose: 108.0 mg/kg/injection, schedule: Q01DX009 (ip), vehicle: Klucel (hydroxypropylcellulose) (HPC)) was 104 % of control.
Take `NC(=O)CC(NC(=O)CCl)C(=O)O` (stereo not drawn): the T/C is 101 % of control (dose: 100.0 mg/kg/injection, schedule: Q04DX003 (ip), vehicle: saline with Tween-80); 92 % of control (dose: 200.0 mg/kg/injection, schedule: Q04DX003 (ip), vehicle: saline with Tween-80); 92 % of control (dose: 400.0 mg/kg/injection, schedule: Q04DX003 (ip), vehicle: saline with Tween-80).
On to `CC(=O)Nc1nc(Br)c2ccccc2c1-c1ccc(N)cc1`, for which the T/C runs as follows: (dose: 50.0 mg/kg/injection, schedule: Q04DX003 (ip), vehicle: other) 97 % of control; under setting [3], 94 % of control; under setting [4], 94 % of control; under setting [5], 102 % of control.
With `O=C1NC(=O)C2C3CCC(O3)C12` (stereo not drawn), the T/C is 102 % of control (dose: 25.0 mg/kg/injection, schedule: Q01DX009 (ip), vehicle: saline); 103 % of control and 97 % of control (dose: 25.0 mg/kg/injection, schedule: Q04DX002 (ip), vehicle: saline with Tween-80); 105 % of control (dose: 50.0 mg/kg/injection, schedule: Q01DX009 (ip), vehicle: saline); 98 % of control and 106 % of control (dose: 50.0 mg/kg/injection, schedule: Q04DX002 (ip), vehicle: saline with Tween-80); 102 % of control under setting [6]; 103 % of control and 101 % of control (dose: 100.0 mg/kg/injection, schedule: Q04DX002 (ip), vehicle: saline with Tween-80). Further, the T/C (dose: 200.0 mg/kg/injection, schedule: Q04DX002 (ip), vehicle: saline with Tween-80) is 87 % of control.
Turning to `CCCCCCCCCCCCCCSc1ccc(Br)cc1`, the T/C is 110 % of control under setting [7], 101 % of control under setting [8] and 93 % of control under setting [9].
`CC(=O)CCC(=O)OCc1ccccc1`: the T/C runs as follows: (dose: 25.0 mg/kg/injection, schedule: Q01DX009 (ip), vehicle: saline with Tween-80) 102 % of control; (dose: 50.0 mg/kg/injection, schedule: Q01DX009 (ip), vehicle: saline with Tween-80) 96 % of control; under setting [10], 108 % of control; under setting [11], 101 % of control; (dose: 400.0 mg/kg/injection, schedule: Q01DX009 (ip), vehicle: saline with Tween-80) 98 % of control.
Consider `COC1OC(COS(=O)(=O)c2ccc(C)cc2)C(SC#N)C1OS(=O)(=O)c1ccc(C)cc1` (stereo not drawn), for which the T/C reads like this: (dose: 50.0 mg/kg/injection, schedule: Q01DX001 (ip), vehicle: saline) 91 % of control; (dose: 100.0 mg/kg/injection, schedule: Q01DX001 (ip), vehicle: saline) 89 % of control; (dose: 200.0 mg/kg/injection, schedule: Q01DX001 (ip), vehicle: saline) 95 % of control; (dose: 400.0 mg/kg/injection, schedule: Q01DX001 (ip), vehicle: saline) 95 % of control.
For `CN1CCc2cc(O)cc3c2C1Cc1ccc(O)c(O)c1-3` (stereo not drawn), the T/C by setting is: (dose: 25.0 mg/kg/injection, schedule: Q04DX003 (ip), vehicle: DMSO) 101 % of control; (dose: 50.0 mg/kg/injection, schedule: Q04DX003 (ip), vehicle: DMSO) 101 % of control; (dose: 100.0 mg/kg/injection, schedule: Q04DX003 (ip), vehicle: DMSO) 101 % of control; (dose: 200.0 mg/kg/injection, schedule: Q04DX003 (ip), vehicle: DMSO) 102 % of control; (dose: 200.0 mg/kg/injection, schedule: Q04DX003 (ip), vehicle: water) 105 % of control; (dose: 400.0 mg/kg/injection, schedule: Q04DX003 (ip), vehicle: water) 102 % of control. Besides, the T/C (dose: 600.0 mg/kg/injection, schedule: Q04DX003 (ip), vehicle: water) is 102 % of control.
As for `O=C(O)c1cccc([N+](=O)[O-])c1C(=O)c1ccccc1`, the T/C reads like this: under setting [10], 107 % of control; under setting [11], 102 % of control.
Regarding `COC(=O)C1C2CCC(COC(C)=O)(O2)C1C(=O)O` (stereo not drawn), the T/C runs as follows: under setting [7], 94 % of control; under setting [6], 96 % of control; under setting [8], 97 % of control; under setting [12], 98 % of control; under setting [9], 88 % of control.
In the case of `OC1C(O)C(O)C(O)C(O)C1O` (stereo not drawn), the T/C was 104 % of control under setting [6]; 94 % of control under setting [12]; 94 % of control (dose: 400.0 mg/kg/injection, schedule: Q01DX009 (ip), vehicle: saline).
For the compound `O=[N+]([O-])c1cccc(OCCCOc2ccccc2)c1`, the T/C by setting is: under setting [3], 93 % of control; under setting [4], 93 % of control; under setting [5], 94 % of control.
As for `N#[N+]c1cnc([O-])[nH]c1=O`, the T/C reads like this: (dose: 0.5 mg/kg/injection, schedule: Q07DX Z (ip), vehicle: saline) 106 % of control; (dose: 1.0 mg/kg/injection, schedule: Q07DX Z (ip), vehicle: saline) 112 % of control; (dose: 2.0 mg/kg/injection, schedule: Q03DX Z (ip), vehicle: saline) 112 % of control; (dose: 2.0 mg/kg/injection, schedule: Q07DX Z (ip), vehicle: saline) 118 % of control; (dose: 4.0 mg/kg/injection, schedule: Q07DX Z (ip), vehicle: saline) 116 % of control; (dose: 8.0 mg/kg/injection, schedule: Q01DX001 (ip), vehicle: saline) 112 % of control. Further, the T/C is 112 % of control (dose: 16.0 mg/kg/injection, schedule: Q01DX001 (ip), vehicle: saline); 115 % of control and 117 % of control (dose: 32.0 mg/kg/injection, schedule: Q01DX001 (ip), vehicle: saline).
